In US20260365682A1, “MODULATORS OF TNF-ALPHA ACTIVITY” (Forward Therapeutics, Inc., priority 2022, published 2026):
Where two headings read alike, the source gives them in different places.

Target: T1, TNF-α (Homo sapiens, UniProt P01375)
T1 construct: purchased R&D 210-TA-020/CF
Assay: TNF-α Induced HEK Blue Cellular Assay (secreted alkaline phosphatase expression, QUANTI-Blue)
Assay type: cell-based
Conditions: HEK Blue TNFα reporter cells, TNF-α 100 μg/ml, 24 hrs at 37° C., inhibition of secreted alkaline phosphatase
Method: TNF-α Induced HEK Blue Cellular Assay
Test articles were diluted in DMSO and serially diluted into 384 well assay plate (Corning 3765), at final concentrations ranging from […] to 0.5 nM. HEK Blue™ TNFα reporter cells were added at a final density of 10,000 cell per well in assay media [DMEM (Gibco, cat #21063-029), 10% fetal bovine serum (ExcelBio, cat #FND500), 1% Penicillin-Streptomycin (Solarbio, cat #P1400-100]. TNF-α (R&D 210-TA-020/CF) was then added to the assay plate at a final concentration of […]. This plate was then incubated for 24 hrs at 37° C. and 5% CO2. Secreted alkaline phosphatase expression was then measured using QUANTI-Blue™ (Invivogen), according to manufacturer instructions and read on an Envision microplate reader at 620 nm.
Inhibition data for test compound over a range of concentration was plotted as percentage inhibition of the test compound (100%=maximum inhibition). IC50 values were determined after correcting for background [(sample read-mean of low control)/(mean of high control-mean of low control)] whereby the low control is DMSO without stimulation and high control is DMSO with stimulation. The IC50 is defined as the concentration of test compound which produces 50% inhibition and was quantified using the 4 parameter logistic equation to fit the data.

T1 sequence (P01375 77-233 limits assumed): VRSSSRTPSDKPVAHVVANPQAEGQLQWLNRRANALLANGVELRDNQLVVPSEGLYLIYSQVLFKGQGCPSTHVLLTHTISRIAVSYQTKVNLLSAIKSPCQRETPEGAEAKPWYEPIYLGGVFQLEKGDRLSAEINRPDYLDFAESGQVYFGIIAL

## [2H]C([2H])([2H])N1C(=O)c2cccc(OC(F)F)c2[C@H]2C[C@@H]1c1nc3ccc(C#Cc4cncn4C)cc3n12 [Example 17, (7R,14R)-1-(difluoromethoxy)-6-(methyl-d3)-11-((1-methyl-1H-imidazol-5-yl)ethynyl)-6,7-dihydro-7,14-methanobenzo[f]benzo[4,5]imidazo[1,2-a][1,4]diazocin-5(14H)-one]
read-out: IC50 value
  IC50: < 100 nM

## [2H]C([2H])([2H])N1C(=O)c2cccc(OC(F)F)c2[C@H]2C[C@@H]1c1nc3ccc(C#Cc4cn(C)nn4)cc3n12 [Example 18, (7R,14R)-1-(difluoromethoxy)-6-(methyl-d3)-11-((1-methyl-1H-1,2,3-triazol-4-yl)ethynyl)-6,7-dihydro-7,14-methanobenzo[f]benzo[4,5]imidazo[1,2-a][1,4]diazocin-5(14H)-one]
read-out: IC50 value
  IC50: < 100 nM

## Cn1nncc1C#Cc1ccc2nc3n(c2c1)[C@@H]1C[C@H]3NC(=O)c2cccc(OC(F)F)c21 [Example 19, (7R,14R)-1-(difluoromethoxy)-11-((1-methyl-1H-1,2,3-triazol-5-yl)ethynyl)-6,7-dihydro-7,14-methanobenzo[f]benzo[4,5]imidazo[1,2-a][1,4]diazocin-5(14H)-one]
read-out: IC50 value
  IC50: < 100 nM

## [2H]C([2H])([2H])N1C(=O)c2cccc(OC(F)F)c2[C@H]2C[C@@H]1c1nc3ccc(C#Cc4cn(C)nc4C#N)cc3n12 [Example 20, 4-(((7R,14R)-1-(difluoromethoxy)-6-(methyl-d3)-5-oxo-5,6,7,14-tetrahydro-7,14-methanobenzo[f]benzo[4,5]imidazo[1,2-a][1,4]diazocin-11-yl)ethynyl)-1-methyl-1H-pyrazole-3-carbonitrile]
read-out: IC50 value
  IC50: < 100 nM

## [2H]C([2H])([2H])N1C(=O)c2cccc(OC(F)F)c2[C@H]2C[C@@H]1c1nc3ccc(C#Cc4cnc(C)nc4)cc3n12 [Example 21, (7R,14R)-1-(difluoromethoxy)-6-(methyl-d3)-11-((2-methylpyrimidin-5-yl)ethynyl)-6,7-dihydro-7,14-methanobenzo[f]benzo[4,5]imidazo[1,2-a][1,4]diazocin-5(14H)-one]
read-out: IC50 value
  IC50: < 100 nM

## [2H]C([2H])([2H])N1C(=O)c2cccc(OC(F)F)c2[C@H]2C[C@@H]1c1nc3ccc(C#Cc4cnccn4)cc3n12 [Example 22, (7R,14R)-1-(difluoromethoxy)-6-(methyl-d3)-11-(pyrazin-2-ylethynyl)-6,7-dihydro-7,14-methanobenzo[f]benzo[4,5]imidazo[1,2-a][1,4]diazocin-5(14H)-one]
read-out: IC50 value
  IC50: < 100 nM

## [2H]C([2H])([2H])N1C(=O)c2cccc(OC(F)F)c2[C@H]2C[C@@H]1c1nc3ccc(C#Cc4cnc(C(F)(F)F)nc4)cc3n12 [Example 23, (7R,14R)-1-(difluoromethoxy)-6-(methyl-d3)-11-((2-(trifluoromethyl)pyrimidin-5-yl)ethynyl)-6,7-dihydro-7,14-methanobenzo[f]benzo[4,5]imidazo[1,2-a][1,4]diazocin-5(14H)-one]
read-out: IC50 value
  IC50: 100 to 1000 nM

## [2H]C([2H])([2H])N1C(=O)c2cccc(OC(F)F)c2[C@H]2C[C@@H]1c1nc3ccc(C#Cc4cnn(C)c4C#N)cc3n12 [Example 24, 4-(((7R,14R)-1-(difluoromethoxy)-6-(methyl-d3)-5-oxo-5,6,7,14-tetrahydro-7,14-methanobenzo[f]benzo[4,5]imidazo[1,2-a][1,4]diazocin-11-yl)ethynyl)-1-methyl-1H-pyrazole-5-carbonitrile]
read-out: IC50 value
  IC50: < 100 nM

## [2H]C([2H])([2H])N1C(=O)c2cccc(OC(F)F)c2[C@H]2C[C@@H]1c1nc3ccc(C#Cc4nncn4C)cc3n12 [Example 25, (7R,14R)-1-(difluoromethoxy)-6-(methyl-d3)-11-((4-methyl-4H-1,2,4-triazol-3-yl)ethynyl)-6,7-dihydro-7,14-methanobenzo[f]benzo[4,5]imidazo[1,2-a][1,4]diazocin-5(14H)-one]
read-out: IC50 value
  IC50: 1000 to 10000 nM

## [2H]C([2H])([2H])N1C(=O)c2cccc(OC(F)F)c2[C@H]2C[C@@H]1c1nc3ccc(C#Cc4ccc(C)nn4)cc3n12 [Example 26, (7R,14R)-1-(difluoromethoxy)-6-(methyl-d3)-11-((6-methylpyridazin-3-yl)ethynyl)-6,7-dihydro-7,14-methanobenzo[f]benzo[4,5]imidazo[1,2-a][1,4]diazocin-5(14H)-one]
read-out: IC50 value
  IC50: 100 to 1000 nM

## [2H]C([2H])([2H])N1C(=O)c2cccc(OC(F)F)c2[C@H]2C[C@@H]1c1nc3ccc(C#CC(=O)OC)cc3n12 [Example 27, methyl 3-((7R,14R)-1-(difluoromethoxy)-6-(methyl-d3)-5-oxo-5,6,7,14-tetrahydro-7,14-methanobenzo[f]benzo[4,5]imidazo[1,2-a][1,4]diazocin-11-yl)propiolate]
read-out: IC50 value
  IC50: < 100 nM

## [2H]C([2H])([2H])N1C(=O)c2cccc(OC(F)F)c2[C@H]2C[C@@H]1c1nc3ccc(C#Cc4nnc(C)o4)cc3n12 [Example 28, (7R,14R)-1-(difluoromethoxy)-6-(methyl-d3)-11-((5-methyl-1,3,4-oxadiazol-2-yl)ethynyl)-6,7-dihydro-7,14-methanobenzo[f]benzo[4,5]imidazo[1,2-a][1,4]diazocin-5(14H)-one]
read-out: IC50 value
  IC50: < 100 nM

## [2H]C([2H])([2H])N1C(=O)c2cccc(OC(F)F)c2[C@H]2C[C@@H]1c1nc3ccc(C#Cc4nnc(C)s4)cc3n12 [Example 29, (7R,14R)-1-(difluoromethoxy)-6-(methyl-d3)-11-((5-methyl-1,3,4-thiadiazol-2-yl)ethynyl)-6,7-dihydro-7,14-methanobenzo[f]benzo[4,5]imidazo[1,2-a][1,4]diazocin-5(14H)-one]
read-out: IC50 value
  IC50: < 100 nM

## [2H]C([2H])([2H])N1C(=O)c2cccc(OC(F)F)c2[C@H]2C[C@@H]1c1nc3ccc(C#Cc4nncs4)cc3n12 [Example 30, (7R,14R)-11-((1,3,4-thiadiazol-2-yl)ethynyl)-1-(difluoromethoxy)-6-(methyl-d3)-6,7-dihydro-7,14-methanobenzo[f]benzo[4,5]imidazo[1,2-a][1,4]diazocin-5(14H)-one]
read-out: IC50 value
  IC50: < 100 nM

## [2H]C([2H])([2H])N1C(=O)c2cccc(OC(F)F)c2[C@H]2C[C@@H]1c1nc3ccc(C#Cc4cncc(F)c4)cc3n12 [Example 31, (7R,14R)-1-(difluoromethoxy)-11-((5-fluoropyridin-3-yl)ethynyl)-6-(methyl-d3)-6,7-dihydro-7,14-methanobenzo[f]benzo[4,5]imidazo[1,2-a][1,4]diazocin-5(14H)-one]
read-out: IC50 value
  IC50: < 100 nM

## [2H]C([2H])([2H])N1C(=O)c2cccc(OC(F)F)c2[C@H]2C[C@@H]1c1nc3ccc(C#Cc4cncs4)cc3n12 [Example 32, (7R,14R)-1-(difluoromethoxy)-6-(methyl-d3)-11-(thiazol-5-ylethynyl)-6,7-dihydro-7,14-methanobenzo[f]benzo[4,5]imidazo[1,2-a][1,4]diazocin-5(14H)-one]
read-out: IC50 value
  IC50: < 100 nM

## [2H]C([2H])([2H])N1C(=O)c2cccc(OC(F)F)c2[C@H]2C[C@@H]1c1nc3ccc(C#Cc4cccnn4)cc3n12 [Example 33, (7R,14R)-1-(difluoromethoxy)-6-(methyl-d3)-11-(pyridazin-3-ylethynyl)-6,7-dihydro-7,14-methanobenzo[f]benzo[4,5]imidazo[1,2-a][1,4]diazocin-5(14H)-one]
read-out: IC50 value
  IC50: 10000 to 30000 nM

## [2H]C([2H])([2H])N1C(=O)c2cccc(OC(F)F)c2[C@H]2C[C@@H]1c1nc3ccc(C#Cc4cnc(C)cn4)cc3n12 [Example 34, (7R,14R)-1-(difluoromethoxy)-6-(methyl-d3)-11-((5-methylpyrazin-2-yl)ethynyl)-6,7-dihydro-7,14-methanobenzo[f]benzo[4,5]imidazo[1,2-a][1,4]diazocin-5(14H)-one]
read-out: IC50 value
  IC50: < 100 nM

## [2H]C([2H])([2H])N1C(=O)c2cccc(OC(F)F)c2[C@H]2C[C@@H]1c1nc3ccc(C#CC4(O)CCC4)cc3n12 [Example 35, (7R,14R)-1-(difluoromethoxy)-11-((1-hydroxycyclobutyl)ethynyl)-6-(methyl-d3)-6,7-dihydro-7,14-methanobenzo[f]benzo[4,5]imidazo[1,2-a][1,4]diazocin-5(14H)-one]
read-out: IC50 value
  IC50: 10000 to 30000 nM

## [2H]C([2H])([2H])N1C(=O)c2cccc(OC(F)F)c2[C@H]2C[C@@H]1c1nc3ccc(C#Cc4cnsc4)cc3n12 [Example 36, (7R,14R)-1-(difluoromethoxy)-11-(isothiazol-4-ylethynyl)-6-(methyl-d3)-6,7-dihydro-7,14-methanobenzo[f]benzo[4,5]imidazo[1,2-a][1,4]diazocin-5(14H)-one]
read-out: IC50 value
  IC50: < 100 nM

## [2H]C([2H])([2H])N1C(=O)c2cccc(OC(F)F)c2[C@H]2C[C@@H]1c1nc3ccc(C#CC(=O)O)cc3n12 [Example 37, 3-((7R,14R)-1-(difluoromethoxy)-6-(methyl-d3)-5-oxo-5,6,7,14-tetrahydro-7,14-methanobenzo[f]benzo[4,5]imidazo[1,2-a][1,4]diazocin-11-yl)propiolic Acid]
read-out: IC50 value
  IC50: < 100 nM

## [2H]C([2H])([2H])N1C(=O)c2cccc(OC(F)F)c2[C@H]2C[C@@H]1c1nc3ccc(C#CC(=O)OC(C)C)cc3n12 [Example 38, isopropyl 3-((7R,14R)-1-(difluoromethoxy)-6-(methyl-d3)-5-oxo-5,6,7,14-tetrahydro-7,14-methanobenzo[f]benzo[4,5]imidazo[1,2-a][1,4]diazocin-11-yl)propiolate]
IC50 value
  IC50: < 100 nM
